One may read the EC50 as the concentration needed to bring the measured effect to its halfway point.

T1 sequence (P43220 24-463): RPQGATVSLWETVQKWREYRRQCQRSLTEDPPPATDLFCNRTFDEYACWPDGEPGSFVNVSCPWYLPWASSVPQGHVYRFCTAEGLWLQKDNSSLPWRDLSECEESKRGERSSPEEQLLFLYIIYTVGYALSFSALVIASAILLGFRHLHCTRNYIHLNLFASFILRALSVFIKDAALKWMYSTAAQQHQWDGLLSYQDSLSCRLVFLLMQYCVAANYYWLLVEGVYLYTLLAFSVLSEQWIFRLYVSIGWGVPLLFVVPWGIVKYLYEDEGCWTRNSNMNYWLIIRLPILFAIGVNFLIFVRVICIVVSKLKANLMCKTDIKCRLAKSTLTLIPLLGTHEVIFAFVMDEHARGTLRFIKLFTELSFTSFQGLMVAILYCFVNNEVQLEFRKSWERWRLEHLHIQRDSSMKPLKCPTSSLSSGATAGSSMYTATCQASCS

One experiment has as its target T1, human GLP-1R (Homo sapiens, UniProt P43220).
T1 construct: host or cells: HEK293
The experiment in a line: GLP-1R cAMP assay (Example B1a, HTRF, 30 min at room temperature). To be noted: Table 1c, comparative compound; read-out: EC50. Format: cell-based. An outline of the steps:
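Competitive HTRF read-out of cAMP after 30 min room-temperature stimulation, BETP absent, of human GLP-1R-HEK293 cells (1,000/well) in HEPES buffer with 500 μM IBMX and 0.1% BSA. Activation normalised to GLP-1(7-37) positive control. EC50 from 4-parameter non-linear regression.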
On the technique in general: Changes in cAMP serve as a functional read-out for many G protein-coupled receptors.
`CCP(=O)(CC)c1ccc(-n2ccn(-c3c4c(nn3-c3cc(C)c(F)c(C)c3)CCN(C(=O)c3cc5cc(C6CCOCC6)ccc5n3[C@@]3(c5noc(=O)[nH]5)C[C@@H]3C)[C@H]4C)c2=O)cc1NC` [Compound 405]: the EC50 was 11.4 nM.

Still in this experiment, the particulars now being: cAMP accumulation in HEK293 expressing human GLP-1R, no BETP, 30 min room temperature (Method B1a, compounds ID 1-609), Table 1; read-out: EC50.
Turning to `Cc1cc(-n2nc3c(c2-n2ccn(-c4ccc5cnncc5c4)c2=O)[C@@H]2CC[C@H](C3)N2C(=O)c2cc3cc([C@H]4CCOC(C)(C)C4)ccc3n2[C@@]2(c3noc(=O)[nH]3)C[C@@H]2C)cc(C)c1F` [Compound 127, 3-((1S,2S)-1-(5-((S)-2,2-dimethyltetrahydro-2H-pyran-4-yl)-2-((4S,7R)-2-(4-fluoro-3,5-dimethylphenyl)-3-(2-oxo-3-(phthalazin-6-yl)-2,3-dihydro-1H-imidazol-1-yl)-2,4,5,6,7,8-hexahydro-4,7-epiminocyclohepta [c]pyrazole-9-carbonyl)-1H-indol-1-yl)-2-methylcyclopropyl)-1,2,4-oxadiazol-5 (4H)-one], the EC50 stood at 381 nM. Turning to `Cc1cc(-n2nc3c(c2-n2ccn(-c4ccc5c(cnn5C)c4F)c2=O)[C@H]2CC[C@@H]([C@@H]3F)N2C(=O)c2cc3cc([C@H]4CCOC(C)(C)C4)ccc3n2[C@@]2(c3noc(=O)[nH]3)C[C@@H]2C)cc(C)c1F` [Compound 513, 3-[(1S,2S)-1-[5-[(4S)-2,2-dimethyltetrahydropyran-4-yl]-2-[(1R,7S,8S)-7-fluoro-4-(4-fluoro-3,5-dimethyl-phenyl)-3-[3-(4-fluoro-1-methyl-indazol-5-yl)-2-oxo-imidazol-1-yl]-4,5,11-triazatricyclo[6.2.1.02,6]undeca-2,5-diene-11-carbonyl]indol-1-yl]-2-methyl-cyclopropyl]-4H-1,2,4-oxadiazol-5-one], the concentration for a half-maximal effect (EC50) was not below 10000 nM. Same read-out and setting: the figure for `CCS(=N)(=O)c1ccc(-n2ccn(-c3c4c(nn3-c3cc(C)c(F)c(C)c3)C[C@H]3CC[C@@H]4N3C(=O)c3cc4cc([C@H]5CCOC(C)(C)C5)ccc4n3[C@@]3(c4noc(=O)[nH]4)C[C@@H]3C)c2=O)c(F)c1` (stereo partly drawn) [Compound 428, 3-((1S,2S)-1-(5-((S)-2,2-dimethyltetrahydro-2H-pyran-4-yl)-2-((4S,7R)-3-(3-(4-(ethylsulfonimidoyl)-2-fluorophenyl)-2-oxo-2,3-dihydro-1H-imidazol-1-yl)-2-(4-fluoro-3,5-dimethylphenyl)-2,4,5,6,7,8-hexahydro-4,7-epiminocyclohepta [c]pyrazole-9-carbonyl)-1H-indol-1-yl)-2-methylcyclopropyl)-1,2,4-oxadiazol-5(4H)-one] is 94.8 nM.

`Cc1cc(-n2nc3c(c2-n2ccn(-c4ccc5c(cnn5C)c4F)c2=O)[C@H]2CC[C@@H](C3)N2C(=O)c2cc3cc([C@@H]4CCOC5(CC5)C4)ccc3n2[C@]2(c3noc(=O)[nH]3)C[C@H]2C)cc(C)c1F` [Compound 517, 3-[(1R,2R)-1-[2-[(1R,8S)-4-(4-fluoro-3,5-dimethyl-phenyl)-3-[3-(4-fluoro-1-methyl-indazol-5-yl)-2-oxo-imidazol-1-yl]-4,5,11-triazatricyclo[6.2.1.02,6]undeca-2,5-diene-11-carbonyl]-5-[(7R)-4-oxaspiro[2.5]octan-7-yl]indol-1-yl]-2-methyl-cyclopropyl]-4H-1,2,4-oxadiazol-5-one]: the EC50 was not below 10000 nM.

As to `Cc1cc(-n2nc3c(c2-n2ccn(-c4ccc(C(N)=O)c(F)c4)c2=O)[C@@H]2CC[C@H](C3)N2C(=O)c2cc3cc([C@H]4CCOC(C)(C)C4)ccc3n2C2(c3noc(=O)[nH]3)CC2)cc(C)c1F` [Compound 117, 4-[3-[(1S,8R)-11-[5-[(4S)-2,2-dimethyltetrahydropyran-4-yl]-1-[1-(5-oxo-4H-1,2,4-oxadiazol-3-yl)cyclopropyl]indole-2-carbonyl]-4-(4-fluoro-3,5-dimethyl-phenyl)-4,5,11-triazatricyclo[6.2.1.02,6]undeca-2,5-dien-3-yl]-2-oxo-imidazol-1-yl]-2-fluoro-benzamide], the EC50 was more than 10000 nM. Still for that read-out and setting: the result for `Cc1cc(-n2nc3c(c2-n2ccn(-c4ccc5c(cnn5C)c4F)c2=O)[C@@H]2CCC[C@H](C3)N2S(=O)(=O)c2cc3cc(C4CCOCC4)ccc3n2[C@]2(c3noc(=O)[nH]3)C[C@@H]2C)cc(C)c1F` [Compound 534, 3-[(1R,2S)-1-[2-[[(1S,8R)-4-(4-fluoro-3,5-dimethyl-phenyl)-3-[3-(4-fluoro-1-methyl-indazol-5-yl)-2-oxo-imidazol-1-yl]-4,5,12-triazatricyclo[6.3.1.02,6]dodeca-2,5-dien-12-yl]sulfonyl]-5-tetrahydropyran-4-yl-indol-1-yl]-2-methyl-cyclopropyl]-4H-1,2,4-oxadiazol-5-one] reads not below 10000 nM; that for `Cc1cc(-n2nc3c(c2-n2ccn(-c4ccc5c(cnn5C)c4F)c2=O)[C@@H]2COC[C@H](C3)N2S(=O)(=O)c2cc3cc([C@H]4CCOC(C)(C)C4)ccc3n2[C@@]2(c3noc(=O)[nH]3)C[C@@H]2C)cc(C)c1F` [Compound 536, 3-((1S,2S)-1-(5-((S)-2,2-dimethyltetrahydro-2H-pyran-4-yl)-2-(((4R,8S)-3-(3-(4-fluoro-1-methyl-1H-indazol-5-yl)-2-oxo-2,3-dihydro-1H-imidazol-1-yl)-2-(4-fluoro-3,5-dimethylphenyl)-2,4,5,7,8,9-hexahydro-4,8-epiminooxocino [5,4-c]pyrazol-10-yl)sulfonyl)-1H-indol-1-yl)-2-methylcyclopropyl)-1,2,4-oxadiazol-5 (4H)-one], 262 nM. `Cc1cc(-n2nc3c(c2-n2ccn(-c4ccc5c(cnn5C)c4F)c2=O)[C@@H]2CC[C@H](C3)N2C(=O)c2cc3cc([C@H]4CCOC(C)(C)C4)ccc3n2[C@@]2(c3nnn[nH]3)C[C@@H]2C)cc(C)c1F` [Compound 128, 1-((4S,7R)-9-(5-((S)-2,2-dimethyltetrahydro-2H-pyran-4-yl)-1-((1S,2S)-2-methyl-1-(1H-tetrazol-5-yl)cyclopropyl)-1H-indole-2-carbonyl)-2-(4-fluoro-3,5-dimethylphenyl)-2,4,5,6,7,8-hexahydro-4,7-epiminocyclohepta [c]pyrazol-3-yl)-3-(4-fluoro-1-methyl-1H-indazol-5-yl)-1H-imidazol-2 (3H)-one]: the EC50 amounted to 137 nM. The same measure, in the same setting: the result for `Cc1cc(-n2nc3c(c2-n2ccn(-c4ccc5c(cnn5C)c4F)c2=O)[C@@H]2CC[C@H](C3)N2C(=O)c2cc3nc([C@@H]4CCOC(C)(C)C4)sc3n2[C@@]2(c3noc(=O)[nH]3)C[C@@H]2C)cc(C)c1F` [Compound 207, 3-[(1S,2S)-1-[2-[(4R)-2,2-dimethyltetrahydropyran-4-yl]-5-[(1S,8R)-4-(4-fluoro-3,5-dimethyl-phenyl)-3-[3-(4-fluoro-1-methyl-indazol-5-yl)-2-oxo-imidazol-1-yl]-4,5,11-triazatricyclo[6.2.1.02,6]undeca-2,5-diene-11-carbonyl]pyrrolo[3,2-d]thiazol-4-yl]-2-methyl-cyclopropyl]-4H-1,2,4-oxadiazol-5-one] reads more than 10000 nM. For the compound `Cc1cc(-n2nc3c(c2-n2ccn(-c4ccc5c(cnn5C)c4F)c2=O)[C@@H]2CC[C@H](C3)N2C(=O)c2cc3cc(C4CCOC5(COC5)C4)ccc3n2C2(c3noc(=O)[nH]3)CC2)cc(C)c1F` (stereo partly drawn) [Compound 136, 3-[1-[5-(2,5-dioxaspiro[3.5]nonan-8-yl)-2-[(1S,8R)-4-(4-fluoro-3,5-dimethyl-phenyl)-3-[3-(4-fluoro-1-methyl-indazol-5-yl)-2-oxo-imidazol-1-yl]-4,5,11-triazatricyclo[6.2.1.02,6]undeca-2,5-diene-11-carbonyl]indol-1-yl]cyclopropyl]-4H-1,2,4-oxadiazol-5-one], the EC50 is more than 10000 nM. The same measure, in the same setting: the figure for `Cc1cc(-n2nc3c(c2-n2ccn(-c4ccc5c(cnn5C)c4F)c2=O)[C@@H]2CC[C@H](C3)N2C(=O)c2cc3c(=O)n(C4CCOC(C)(C)C4)ccc3n2[C@@]2(c3noc(=O)[nH]3)C[C@@H]2C)cc(C)c1F` (stereo partly drawn) [Compound 231, 3-[(1S,2S)-1-[5-(2,2-dimethyltetrahydropyran-4-yl)-2-[(1S,8R)-4-(4-fluoro-3,5-dimethyl-phenyl)-3-[3-(4-fluoro-1-methyl-indazol-5-yl)-2-oxo-imidazol-1-yl]-4,5,11-triazatricyclo[6.2.1.02,6]undeca-2,5-diene-11-carbonyl]-4-oxo-pyrrolo[3,2-c]pyridin-1-yl]-2-methyl-cyclopropyl]-4H-1,2,4-oxadiazol-5-one] is more than 10000 nM; for `Cc1cc(-n2nc3c(c2-n2ccn(-c4ccc5c(cnn5C)c4Cl)c2=O)[C@@H]2COC[C@H](C3)N2C(=O)c2cc3cc([C@H]4CCOC(C)(C)C4)ccc3n2[C@@]2(c3noc(=O)[nH]3)C[C@@H]2C)cc(C)c1F` [Compound 222, 3-((1S,2S)-1-(2-((4R,8S)-3-(3-(4-chloro-1-methyl-1H-indazol-5-yl)-2-oxo-2,3-dihydro-1H-imidazol-1-yl)-2-(4-fluoro-3,5-dimethylphenyl)-2,4,5,7,8,9-hexahydro-4,8-epiminooxocino [5,4-c]pyrazole-10-carbonyl)-5-((S)-2,2-dimethyltetrahydro-2H-pyran-4-yl)-1H-indol-1-yl)-2-methylcyclopropyl)-1,2,4-oxadiazol-5(4H)-one] it is 177 nM; for `Cc1cc(-n2nc3c(c2-n2ccn(-c4ccc5c(cnn5C)c4F)c2=O)[C@@H]2CCC[C@H](C3)N2S(=O)(=O)c2cc3cc([C@H]4CCOC5(CC5)C4)ccc3n2[C@]2(c3noc(=O)[nH]3)C[C@@H]2C)cc(C)c1F` [Compound 609, 3-[(1R,2S)-1-[2-[[(1S,8R)-4-(4-fluoro-3,5-dimethyl-phenyl)-3-[3-(4-fluoro-1-methyl-indazol-5-yl)-2-oxo-imidazol-1-yl]-4,5,12-triazatricyclo[6.3.1.02,6]dodeca-2,5-dien-12-yl]sulfonyl]-5-[(7S)-4-oxaspiro [2.5]octan-7-yl]indol-1-yl]-2-methyl-cyclopropyl]-4H-1,2,4-oxadiazol-5-one] it is not below 10000 nM.

The same experiment, now with this note: text to Table 1d, bridge atoms configured out of the plane or toward the reader.
As to `Cc1cc(-n2nc3c(c2-n2ccn(-c4ccc5c(cnn5C)c4F)c2=O)[C@H]2CC[C@@H]([C@@H]3F)N2C(=O)c2cc3cc([C@H]4CCOC(C)(C)C4)ccc3n2[C@@]2(c3noc(=O)[nH]3)C[C@@H]2C)cc(C)c1F` [Compound 513, 3-[(1S,2S)-1-[5-[(4S)-2,2-dimethyltetrahydropyran-4-yl]-2-[(1R,7S,8S)-7-fluoro-4-(4-fluoro-3,5-dimethyl-phenyl)-3-[3-(4-fluoro-1-methyl-indazol-5-yl)-2-oxo-imidazol-1-yl]-4,5,11-triazatricyclo[6.2.1.02,6]undeca-2,5-diene-11-carbonyl]indol-1-yl]-2-methyl-cyclopropyl]-4H-1,2,4-oxadiazol-5-one], the potency result is recorded as “little or no potency”.

Source of the values: patent US12617783B2, “Heterocyclic GLP-1R agonists” (BIOMEA FUSION, INC., priority 2024, dated 2026).
